The text below walks through data of patent publication US6794516B2, “Synthesis of clasto-lactacystin β-lactone and analogs thereof” (Millennium Pharmaceuticals, Inc., priority 1997, dated 2004).

In general, IC50 refers to the concentration needed to halve the response being measured. The half-life is how long it takes for the measured level to halve.

The target in series [1] is T1, PA28-activated 20S proteasome (Homo sapiens, UniProt P28074).
T1 construct: from tissue
Briefly: Inactivation of the chymotrypsin-like activity of PA28-activated 20S proteasome (Suc-Leu-Leu-Val-Tyr-AMC). In kind it is biochemical. Particulars: for kinact/KI: rate of enzyme inactivation, chymotrypsin-like activity of PA28-activated 20S proteasome, 37° C., pH 8.0, read-out: Kobs/[I]. Here is the method:
Purification of 20S proteasome and proteasome activator PA28 was performed as previously described (Dick et al., J. Biol. Chem. 271:7273 (1996)).
2 mL of assay buffer (20 mM HEPES, 0.5 mM EDTA, pH 8.0) and Suc-Leu-Leu-Val-Tyr-AMC in dimethyl sulfoxide were added to a 3 mL fluorescent cuvette, and the cuvette was placed in the jacketed cell holder of a Hitachi F-2000 fluorescence spectrophotometer. The temperature was maintained at 37° C. by a circulating water bath. 0.34 mg of PA28 were added and the reaction progress was monitored by the increase in fluorescence at 440 nm (λex=380 nm) that accompanies production of free AMC. […] After reaching a steady state of substrate hydrolysis, lactacystin was added to a final concentration of […], and the reaction was monitored for 1 h. The fluorescence (F) versus time (t) data were collected on a microcomputer using LAB CALC (Galactic) software. kinact values were estimated by a nonlinear least-squares fit of the data to the first order equation:
where C=Ft=0 and A=Ft=∞−Ft=0.

A further series deals with C2C12 cells. Briefly: Inhibition of intracellular protein degradation in C2C12 cells. The series is classed as cell-based, mouse. Particulars: for IC50: Mus musculus, C2C12 cells, 35S-methionine labelled, TCA soluble radioactivity. Here is the method: C2C12 cells (a mouse myoblast line) were labeled for 48 hrs with ^35S-methionine. The cells were then washed and preincubated for 2 hrs in the same media supplemented with 2 mM unlabelled methionine. The media was removed and replaced with a fresh aliquot of the preincubation media containing 50% serum, and a concentration of the compound to be tested. The media was then removed and made up to 10% TCA and centrifuged. The TCA soluble radioactivity was counted. Inhibition of proteolysis was calculated as the percent decrease in TCA soluble radioactivity.

A short description of series [2]: Lactone hydrolysis to the dihydroxy acid. Particulars: for half-life at 200 mM: HEPES/EDTA buffer, pH 7.8.
Experimental: (§1) The half-lives (ti1/2) for hydrolysis of β-lactone analogs to the corresponding dihydroxy acids were measured at 37° C. at a concentration of 200 mM in 20 mM HEPES, 0.5 mM EDTA, pH 7.8. Absorbance was measured for at least five half-lives (approximately 1 hour) at 230 nm, the wavelength at which there is the greatest difference in extinction coefficients for the lactone and dihydroxy.
Another series relates to Male Sprague Dawley rats. Briefly: Middle cerebral artery (MCA) occlusion/reperfusion: infarct size and neurological score. In kind it is in vivo, rat. Particulars: for infarct volume: rat MCA occlusion. How it is done:
Male Sprague Dawley rats (250-400 g) were anesthetized with haloethane and subjected to middle cerebral artery (MCA) occlusion using a nylon filament for 2 h. Subsequently, the filament was removed and reperfusion of the infarcted tissue occurred for 24 hours before the rat was sacrificed.
Immediately after the filament was withdrawn, the animals were evaluated using a neurological scoring system. Neurological scores were expressed on a scale from 0 to 10, with 0 representing no neurological deficit and 10 representing severe neurological deficit. After 24 hours and before sacrifice, animals were evaluated a second time using the same neurological scoring system.
Staining of coronal sections (2.0 mm×7-8) with triphenyltetrazolium chloride (TTC) taken throughout the brain were evaluated under blinded conditions using image analysis to determine infarct size.
Rats were given i.v. bolus injections (1.0 mL/kg) of either vehicle (50% propylene glycol/saline; n=8) or 7-n-propyl-clasto-lactacystin β-lactone (3b) (0.3 mg/kg; n=7) at 2 hours after the start of the occlusion. Two additional groups of rats were given i.v. bolus injections (1.0 mL/kg) of 3b at 0 minutes, 2 hours, and 6 hours after the start of the occlusion. One group (0.1 mg/kg×3; n=6) received 0.1 mg/kg at each of these times, while another group (0.3 mg/kg×3; n=7) received 0.3 mg/kg at each of the three timepoints.

Another series is described as follows: physchem. Particulars: buffer, pH 7.8.

Entries after “also recorded” stand apart in the source; their conditions may differ.

Experimental for physchem: as §1

Take `CC(C)C[C@H]1C(=O)N[C@@]2([C@@H](O)C(C)C)C(=O)O[C@@H]12` [Compound 3d]: the kinact/KI in series [1] stood at 17000 M⁻¹ s⁻¹. Also, the half-inhibitory concentration (IC50) with C2C12 cells stood at 510 nM. In addition, the half-life at 200 mM in series [2] is 16.8 min.
As for `CCC[C@H]1C(=O)N[C@@]2([C@@H](O)C(C)C)C(=O)O[C@@H]12` [Compound 3b, 7-n-propyl-clasto-lactacystin β-lactone], the kinact/KI in series [1] is 46500 M⁻¹ s⁻¹. Moreover, the IC50 with C2C12 cells turned out to be 290 nM. Besides, the neurological score result with Male Sprague Dawley rats (i.v. 0.1 mg/kg×3 dosage group) and with Male Sprague Dawley rats (i.v. 0.3 mg/kg×3 dosage group) was “No significant improvement” in each case. The “infarct volume decreased by” value in the series with Male Sprague Dawley rats (rat MCA occlusion 2 h, reperfusion 24 h, single i.v. dose 0.3 mg/kg at 2 hours after start of occlusion) is reported as 50%. Besides, the infarct volume entry in the series with Male Sprague Dawley rats (i.v. 0.1 mg/kg×3 (0 minutes, 2 hours, 6 hours)) is “not significantly decreased”; with Male Sprague Dawley rats (i.v. 0.3 mg/kg×3 (0 minutes, 2 hours, 6 hours)), “not significantly decreased”. The “mean neurological score at 24 hours” value with Male Sprague Dawley rats (scale 0 to 10 (10 = severe deficit), single i.v. 0.3 mg/kg dose, vehicle 8.7±0.6) is recorded as 4±1. Moreover, the neurological improvement in the series on Male Sprague Dawley rats (single i.v. 0.3 mg/kg dose, versus vehicle at 24 hours) amounted to 60%. This compound also displayed a half-life at 200 mM in series [2] of 15.3 min.
Take `CCCC[C@H]1C(=O)N[C@@]2([C@@H](O)C(C)C)C(=O)O[C@@H]12` [Compound 3c]: the kinact/KI in series [1] is 38000 M⁻¹ s⁻¹. For the same compound, in the series on C2C12 cells, the IC50 came out at 330 nM. In series [2], this compound came in with a half-life at 200 mM of 17 min.
As to `CC(C)[C@H](O)[C@@]12NC(=O)[C@H](C)[C@@H]1OC2=O` [Compound 2, clasto-lactacystin β-lactone], the kinact/KI in series [1] was found to be 20000 M⁻¹ s⁻¹. The IC50 in the series on C2C12 cells lay in the range of 700 to 1100 nM. In the series “physchem”, this compound returned a half-life at 200 mM of 13 min.
Regarding `CO[C@H]1C(=O)N[C@@]2([C@@H](O)C(C)C)C(=O)O[C@@H]12` [Compound 3f], the “relative potency in the enzyme assay” value in series [1] (compared to the other compounds of Table 1 / to 2) is reported as “most potent”. Moreover, the kinact/KI in series [1] is 82200 M⁻¹ s⁻¹. The IC50 in the series on C2C12 cells was found to be 86000 nM. The “relative potency in cell culture” value in the series with C2C12 cells (compared to 2) is “less potent than 2; also recorded: much weaker activity”. Besides, in series [2], the half-life at 200 mM was determined as 3.7 min. For the same compound, the “relative hydrolysis rate” value in series [2] (compared to 2) is “more rapidly hydrolyzed”.
`CC[C@H]1C(=O)N[C@@]2([C@@H](O)C(C)C)C(=O)O[C@@H]12` [Compound 3a]: the kinact/KI in series [1] was determined as 39000 M⁻¹ s⁻¹. Further, in the series with C2C12 cells, the IC50 turned out to be 320 nM. In addition, in series [2], the half-life at 200 mM turned out to be 15.3 min.
